This experiment deals with T1, human TLR7 (Homo sapiens, UniProt Q9NYK1).
T1 construct: expressed in transfected cells; host or cells: HEK293 cell line stably expressing the pNiFty2-SEAP reporter plasmid; TLR7 in pUNO vector, blasticidin selection
T1 sequence (Q9NYK1 27-1049): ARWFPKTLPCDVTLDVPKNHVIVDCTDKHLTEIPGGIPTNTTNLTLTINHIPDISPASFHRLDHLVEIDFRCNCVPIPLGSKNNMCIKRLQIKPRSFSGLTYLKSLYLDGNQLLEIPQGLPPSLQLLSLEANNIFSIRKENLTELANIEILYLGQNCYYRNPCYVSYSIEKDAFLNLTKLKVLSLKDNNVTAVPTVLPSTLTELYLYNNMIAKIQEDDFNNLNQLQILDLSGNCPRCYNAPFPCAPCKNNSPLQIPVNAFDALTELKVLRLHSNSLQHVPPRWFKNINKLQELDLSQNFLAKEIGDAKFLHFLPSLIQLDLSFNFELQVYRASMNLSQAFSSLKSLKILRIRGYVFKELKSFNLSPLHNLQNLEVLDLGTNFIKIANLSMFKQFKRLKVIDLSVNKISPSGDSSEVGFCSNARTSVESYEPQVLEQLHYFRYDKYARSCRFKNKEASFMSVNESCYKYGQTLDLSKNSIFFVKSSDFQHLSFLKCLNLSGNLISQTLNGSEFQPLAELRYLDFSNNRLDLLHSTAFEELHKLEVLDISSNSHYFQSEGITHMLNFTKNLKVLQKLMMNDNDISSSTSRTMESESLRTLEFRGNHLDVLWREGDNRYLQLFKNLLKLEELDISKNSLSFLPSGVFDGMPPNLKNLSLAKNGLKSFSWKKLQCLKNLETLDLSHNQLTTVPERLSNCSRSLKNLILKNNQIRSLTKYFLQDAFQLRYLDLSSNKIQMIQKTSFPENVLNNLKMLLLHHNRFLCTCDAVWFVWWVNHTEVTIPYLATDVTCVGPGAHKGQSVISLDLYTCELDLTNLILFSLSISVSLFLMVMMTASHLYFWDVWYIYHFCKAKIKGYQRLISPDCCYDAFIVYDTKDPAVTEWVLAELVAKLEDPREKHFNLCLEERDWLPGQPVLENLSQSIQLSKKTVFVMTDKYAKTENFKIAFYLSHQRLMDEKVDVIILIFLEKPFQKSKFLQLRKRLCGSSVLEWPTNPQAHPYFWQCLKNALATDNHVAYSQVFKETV
Briefly: Human TLR7 Assay (SEAP reporter in HEK293 cells).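 Also: Read-out is secreted alkaline phosphatase made under an NFkB/ELAM-1 composite promoter, reporting TLR7-triggered NFkB activation.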 Format: cell-based. Particulars: HEK293 cell line expressing human TLR7 and pNiFty2-SEAP reporter, overnight incubation at 37° C., 0.1% DMSO; read-out: hTLR7 EC50.
Regarding `CCOC(=O)C(C)(C)Oc1cccc(CN(CCCCn2c(CCOC)nc3c(N)nc4ccccc4c32)CCCN2CCOCC2)c1` [Example 136, Ethyl 2-{3-[({4-[4-amino-2-(2-methoxyethyl)-1H-imidazo[4,5-c]quinolin-1-yl]butyl}{3-morpholinopropyl}amino)methyl]phenoxy}-2-methylpropanoate], the EC50 is 111 nM.
The figure for `CCOC(=O)COc1cccc(CN(CCCn2c(CCOC)nc3c(N)nc4ccccc4c32)C(=O)CN(C)CC)c1F` [Example 97, Ethyl 2-{3-[(N-{3-[4-amino-2-(2-methoxyethyl)-1H-imidazo[4,5-c]quinolin-1-yl]propyl}-2-{ethyl(methyl)amino}acetamido)methyl]-2-fluorophenoxy}acetate] is 256 nM.
The figure for `CCN(CC)CC(=O)N(CCn1c(CCOC)nc2c(N)nc3ccccc3c21)Cc1cccc(OCC(=O)OC(C)C)c1` [Example 103, Isopropyl 2-{3-[(N-{2-[4-amino-2-(2-methoxyethyl)-1H-imidazo[4,5-c]quinolin-1-yl]ethyl}-2-{diethylamino}acetamido)methyl]phenoxy}acetate] is above 10000 nM.
On to `COCCc1nc2c(N)nc3ccccc3c2n1CCCNCc1cccc(OCC(=O)OC)c1` [Example 15, Methyl (3-{[[3-(4-amino-2-(2-methoxyethyl)-1H-imidazo[4,5-c]quinolin-1-yl)propyl]amino]methyl}phenoxy)acetate], for which the EC50 was 181 nM.
The value for `COCCc1nc2c(N)nc3ccccc3c2n1CCCN(Cc1cccc(OC(C)(C)C(=O)OC)c1)C(=O)CN(C)C` [Example 149, Methyl 2-{3-[(N-{3-[4-amino-2-(2-methoxyethyl)-1H-imidazo[4,5-c]quinolin-1-yl]propyl}-2-{dimethylamino}acetamido)methyl]phenoxy}-2-methylpropanoate] was 181 nM; that for `CCOC(=O)COc1cccc(CN(CCn2c(CCOC)nc3c(N)nc4ccccc4c32)C(=O)CN(CC)CC)c1` [Example 101, Ethyl 2-{3-[(N-{2-[4-amino-2-(2-methoxyethyl)-1H-imidazo[4,5-c]quinolin-1-yl]ethyl}-2-{diethylamino}acetamido)methyl]phenoxy}acetate] was above 10000 nM; that for `CCOCc1nc2c(N)nc3ccccc3c2n1CCCN(Cc1cccc(OCC(=O)OC(C)C)c1)C(=O)CN1CCCC1` [Example 172, Isopropyl 2-{3-[(N-{3-[4-amino-2-(ethoxymethyl)-1H-imidazo[4,5-c]quinolin-1-yl]propyl}-2-{pyrrolidin-1-yl}acetamido)methyl]phenoxy}acetate] was 434 nM.
The value for `CCOC(=O)COc1cc(CN(CCN2CCCCC2)C(=O)NCCCCn2c(CCOC)nc3c(N)nc4ccccc4c32)ccc1F` [Example 143, Ethyl 2-{5-[(3-{4-[4-amino-2-(2-methoxyethyl)-1H-imidazo[4,5-c]quinolin-1-yl]butyl}-1-{2-(piperidin-1-yl)ethyl}ureido)methyl]-2-fluorophenoxy}acetate] was 49.4 nM; that for `CCOC(=O)COc1cc(CN(CCCn2c(CCOC)nc3c(N)nc4ccccc4c32)C(=O)CN(CC)CC)ccc1F` [Example 119, Ethyl 2-{5-[(N-{3-[4-amino-2-(2-methoxyethyl)-1H-imidazo[4,5-c]quinolin-1-yl]propyl}-2-{diethylamino}acetamido)methyl]-2-fluorophenoxy}acetate] was 93.2 nM.
`CCN(CC)CC(=O)N(CCCn1c(CCOC)nc2c(N)nc3ccccc3c21)Cc1cccc(OCC(=O)OC(C)C)c1C` [Example 147, Isopropyl 2-{3-[(N-{3-[4-amino-2-(2-methoxyethyl)-1H-imidazo[4,5-c]quinolin-1-yl]propyl}-2-{diethylamino}acetamido)methyl]-2-methylphenoxy}acetate]: the EC50 came to 183 nM.
The value for `COCCc1nc2c(N)nc3ccccc3c2n1CCCN(Cc1ccc(OC)c(OCC(=O)OC(C)C)c1)C(=O)CN(C)C` [Example 75, Isopropyl 2-{5-[(N-{3-[4-amino-2-(2-methoxyethyl)-1H-imidazo[4,5-c]quinolin-1-yl]propyl}-2-{dimethylamino}acetamido)methyl]-2-methoxyphenoxy}acetate] was 405 nM; that for `CCOCc1nc2c(N)nc3ccccc3c2n1CCCN(Cc1cccc(OC(C)(C)C(=O)OCC)c1)C(=O)CN1CCCC1` [Example 170, Ethyl 2-{3-[(N-{3-[4-amino-2-(ethoxymethyl)-1H-imidazo[4,5-c]quinolin-1-yl]propyl}-2-{pyrrolidin-1-yl}acetamido)methyl]phenoxy}-2-methylpropanoate] was 521 nM; that for `CCN(CC)CC(=O)N(CCCn1c(CCOC)nc2c(N)nc3ccccc3c21)Cc1cccc(OCC(=O)OC(C)C)c1OC` [Example 90, Isopropyl 2-{3-[(N-{3-[4-amino-2-(2-methoxyethyl)-1H-imidazo[4,5-c]quinolin-1-yl]propyl}-2-{diethylamino}acetamido)methyl]-2-methoxyphenoxy}acetate] was 81 nM.
Regarding `CCOC(=O)C(C)(C)Oc1cccc(CN(CCCn2c(CCOC)nc3c(N)nc4ccccc4c32)C(=O)CN(C)CC)c1` [Example 150, Ethyl 2-{3-[(N-{3-[4-amino-2-(2-methoxyethyl)-1H-imidazo[4,5-c]quinolin-1-yl]propyl}-2-{ethyl(methyl)amino}acetamido)methyl]phenoxy}-2-methylpropanoate], the EC50 amounted to 84.6 nM.
The figure for `COCCc1nc2c(N)nc3ccccc3c2n1CCCN(Cc1cccc(OCC(=O)OC2CCCC2)c1)C(=O)CN(C)C` [Example 110, Cyclopentyl 2-{3-[(N-{3-[4-amino-2-(2-methoxyethyl)-1H-imidazo[4,5-c]quinolin-1-yl]propyl}-2-{dimethylamino}acetamido)methyl]phenoxy}acetate] is 128 nM; for `COCCc1nc2c(N)nc3ccccc3c2n1CCCCN(CCN(C)C)Cc1cccc(OCC(=O)OC(C)C)c1` [Example 132, Isopropyl 2-{3-[({4-[4-amino-2-(2-methoxyethyl)-1H-imidazo[4,5-c]quinolin-1-yl]butyl}{2-[dimethylamino]ethyl}amino)methyl]phenoxy}acetate] it is 56.4 nM.
`CCOC(=O)C(C)(C)Oc1cccc(CN(CCn2c(CCOC)nc3c(N)nc4ccccc4c32)C(=O)CN(CC)CC)c1` [Example 106, Ethyl 2-{3-[(N-{2-[4-amino-2-(2-methoxyethyl)-1H-imidazo[4,5-c]quinolin-1-yl]ethyl}-2-{diethylamino}acetamido)methyl]phenoxy}-2-methylpropanoate]: the EC50 was above 10000 nM.
The figure for `CCCCc1nc2c(N)nc3ccccc3c2n1CCCN(Cc1cccc(OCC(=O)OC(C)C)c1)C(=O)CN(CC)CC` [Example 157, Isopropyl 2-[3-({N-[3-(4-amino-2-butyl-1H-imidazo[4,5-c]quinolin-1-yl)propyl]-2-(diethylamino)acetamido}methyl)phenoxy]acetate] is 100 nM.
Regarding `CCOC(=O)COc1cc(CN(CCCCn2c(CCOC)nc3c(N)nc4ccccc4c32)C(=O)NCCN2CCCCC2)ccc1F` [Example 140, Ethyl 2-{5-[(1-{4-[4-amino-2-(2-methoxyethyl)-1H-imidazo[4,5-c]quinolin-1-yl]butyl}-3-{2-(piperidin-1-yl)ethyl}ureido)methyl]-2-fluorophenoxy}acetate], the concentration for a half-maximal effect (EC50) was determined as 79.1 nM.

These data come from US20110136801A1, “Novel Compounds” (Dainippon Sumitomo Pharma Co. Ltd., priority 2009, published 2011).
